The test system of data set [1] is platelet thrombus formation on damaged aortic wall. Description: Indium 111 platelet labeling technique in rabbits (platelet accumulation at vessel wall). The data set is classed as in vivo. On the procedure:
In medicine, for example, arterial thrombosis is diagnosable by clinical manifestations, by arteriography, and recently, by an Indium 111 platelet labeling technique (see, for example, the article entitled "Differential , Effects of Two Doses of Aspirin on Platelet-Vessel Wall Interaction In Vivo" by K.K. Wu et al being published in the Journal of Clinical Investigtion, August, 1981).
Sodium bisulfite is evaluated under in vivo conditions as an antithrombotic agent using the anti-indium 111 platelet labeling technique in rabbits (see the Wu et al article above cited). The material was administered by intravenous injection (72.80 milligram per kilogram of animal body weight). […]

In data set [2] the target is T1, FIBRINOGEN (Homo sapiens, UniProt P02671+P02675+P02679).
T1 construct: from tissue; host or cells: human plasma
T1 sequence (P02671 20-629 limits assumed): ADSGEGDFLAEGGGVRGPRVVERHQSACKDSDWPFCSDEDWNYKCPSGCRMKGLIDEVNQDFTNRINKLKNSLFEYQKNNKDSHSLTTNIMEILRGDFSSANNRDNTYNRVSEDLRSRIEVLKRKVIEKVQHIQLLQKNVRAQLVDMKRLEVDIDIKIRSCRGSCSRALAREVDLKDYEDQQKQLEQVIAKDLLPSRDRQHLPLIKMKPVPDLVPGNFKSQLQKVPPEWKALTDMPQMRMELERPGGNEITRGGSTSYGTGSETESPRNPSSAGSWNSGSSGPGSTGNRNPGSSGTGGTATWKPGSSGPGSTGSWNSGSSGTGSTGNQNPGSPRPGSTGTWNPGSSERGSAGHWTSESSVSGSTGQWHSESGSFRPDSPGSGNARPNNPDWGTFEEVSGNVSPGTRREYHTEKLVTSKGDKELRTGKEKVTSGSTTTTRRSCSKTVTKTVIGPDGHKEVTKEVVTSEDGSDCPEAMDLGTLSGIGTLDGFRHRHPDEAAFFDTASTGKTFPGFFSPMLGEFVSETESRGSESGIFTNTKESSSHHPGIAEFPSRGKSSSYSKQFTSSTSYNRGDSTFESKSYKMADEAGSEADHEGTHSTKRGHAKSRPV
T1 sequence (P02675 31-491): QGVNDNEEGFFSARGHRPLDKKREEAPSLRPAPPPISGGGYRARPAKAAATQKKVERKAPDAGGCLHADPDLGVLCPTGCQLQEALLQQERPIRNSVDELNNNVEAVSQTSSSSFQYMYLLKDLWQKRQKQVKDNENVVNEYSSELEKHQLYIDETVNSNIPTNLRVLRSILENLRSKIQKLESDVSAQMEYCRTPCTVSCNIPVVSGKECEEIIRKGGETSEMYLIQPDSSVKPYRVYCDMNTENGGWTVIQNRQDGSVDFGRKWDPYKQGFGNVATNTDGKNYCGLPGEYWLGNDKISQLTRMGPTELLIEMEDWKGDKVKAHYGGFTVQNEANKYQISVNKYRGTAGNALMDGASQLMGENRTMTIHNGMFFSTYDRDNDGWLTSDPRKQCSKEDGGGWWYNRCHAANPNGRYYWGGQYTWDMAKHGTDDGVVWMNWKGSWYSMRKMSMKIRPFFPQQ
T1 sequence (P02679 27-453): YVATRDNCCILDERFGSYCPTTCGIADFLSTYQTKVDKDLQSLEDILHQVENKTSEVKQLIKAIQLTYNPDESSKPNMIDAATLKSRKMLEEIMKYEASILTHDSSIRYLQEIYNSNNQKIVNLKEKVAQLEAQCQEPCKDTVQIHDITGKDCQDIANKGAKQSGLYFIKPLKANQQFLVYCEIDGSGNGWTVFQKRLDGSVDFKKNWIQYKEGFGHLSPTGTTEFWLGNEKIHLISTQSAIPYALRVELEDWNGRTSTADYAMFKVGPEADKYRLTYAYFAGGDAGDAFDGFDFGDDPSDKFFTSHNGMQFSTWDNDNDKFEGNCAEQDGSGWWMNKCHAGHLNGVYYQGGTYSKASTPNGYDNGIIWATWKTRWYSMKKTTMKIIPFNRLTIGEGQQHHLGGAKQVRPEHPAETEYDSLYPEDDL
Put plainly: Coagulation factor assay (Biggs): fibrinogen. The settings on record: for FIBRINOGEN (mg%): U.S.P. grade, control 218. The data set is classed as biochemical. The protocol:
(§1) The effect of U.S.P. grade sodium bisulfite on blood coagulation factors is evaluated by standard procedures (Biggs) and the results are shown in Table III below.
(§2) References for PT, PTT, and assays of all the coagulation factors can be found in a standard textbook, entitled "Human Blood Coagulation, Haemostasis and Thrombosis", edited by Rosemary Biggs, published by Blackwell Scientific Publications, Oxford, England (2nd edition), pages 670-705, 1976.

Data set [3] addresses T1, FIBRINOGEN
Put plainly: Coagulation factor assay (Biggs): fibrinogen. The data set is classed as biochemical. The following applies: mean of 2 experiments; control 205.

Data set [4] has as its target T2, PROTHROMBIN (Homo sapiens, UniProt P00734).
T2 construct: from tissue; host or cells: human plasma
Description: Coagulation factor assay (Biggs): prothrombin (Factor II). The data set is classed as biochemical. The following applies: for PROTHROMBIN (%): U.S.P. grade, control 87. The protocol: as §1, §2

In data set [5] the test system is RATS. Put plainly: Rats fed bait containing 0.5% sodium bisulfite. It counts as in vivo. The source says:
Five rats, each in a separate cage, were given a bait containing 0.5 percent by weight of sodium bisulfite. The bait consisted of cracked grains (wheat, corn, millet, and corn meal). The amounts of bait eaten are summarized for an eleven day period.

Data set [6] can be described thus: Human use, oral drops with meals (case histories). It counts as in vivo. The source says: To evaluate the effect of sodium bisulfite in human use (this agent being known to be safe for human consumption), certain patients received this agent. The case history and observations are summarized individually below.
In each case, each patient is provided with such a bottle of Solution D, unless otherwise noted, and is instructed to dose himself (or herself, as the case may be) from the bottle so provided at the rate of seven drops to be taken orally with each of his (her) three daily meals. When the contents of one such bottle is thus so gradually consumed by an individual patient, another is provided to him (her).

The test system of data set [7] is blood. Put plainly: Storage of blood samples with added sodium bisulfite solution. Details: species or system human. The following applies: about 4 cc blood + about 10 drops of 10 weight percent solution; about 2 1/2 years at ambient temperatures. The protocol: Samples of about 4 cc each of blood were prepared. To each of these was added about 10 drops of a solution 10 weight percent and sodium bisulfite in distilled water. Each sample was then sealed into a glass vial.

“And” between values parts separate entries of the source, which are not always exact repeats. Equal values may be shown once.

On to `CCN(CC)CC.O=S(O)O` [TRIETHYL AMINE BISULFITE, triethyl amine bisulfite], for which the “mortality of another rabbit so tested” value in data set [1] (intervenous injection 127.39 mg/kg) is listed as “died”. Further, the “reduction in accumulation of platelet thrombus” value in data set [1] (intervenous injection 127.39 mg/kg, equivalent to 0.01 molar concentrations in blood) was “about 30%”. For the same compound, in data set [2] (mean of two experiments, control 205), the “Fibrinogen (%)” value turned out to be 125%.
On to `C[N+](C)(C)C` [Tetramethyl-ammonium bisulfite], for which the “Fibrinogen (%)” value in data set [3] turned out to be 170%.
With Sodium bisulfite, the “reduces accumulation of platelet thrombus at the damaged vessel wall” value in data set [1] (intravenous injection 72.80 milligram per kilogram) is given as “The findings indicate that the active agent reduces accumulation of platelet thrombus at the damaged vessel wall by 70%”. In addition, the “Platelet Accumulation II. at normal vessel wall %” value in data set [1] (intravenous injection 72.80 milligram per kilogram, rabbits A and B, control 0.03± 0.02) turned out to be 0.08%. For the same compound, the “Platelet Accumulation II. at normal vessel wall cpm/gm” value in data set [1] (intravenous injection 72.80 milligram per kilogram, rabbits A and B, control 72,140± 39,040) was 98,611 cpm/gm and 83,066 cpm/gm. In data set [1] (intravenous injection 72.80 milligram per kilogram, rabbits A and B, count per minute per gram dry weight of tissue, control 1,167,820± 21,310), the “Platelet Accumulation I. at damaged vessel wall cpm/gm” value was 133,986 cpm/gm and 146,630 cpm/gm. Besides, the “Platelet Accumulation I. at damaged vessel wall %” value in data set [1] (intravenous injection 72.80 milligram per kilogram, rabbits A and B, percentage of injected radioactivity per gram dry weight of tissue, control 0.44± 0.08) is 0.11% and 0.15%. The “FIBRINOGEN (mg%)” value is on record as 222 mg% in data set [2] (0.01 mg/ml); 228 mg% in data set [2] (0.05 mg/ml); 217 mg% in data set [2] (0.1 mg/ml); 190 mg% in data set [2] (0.5 mg/ml); 185 mg% in data set [2] (1.0 mg/ml); 130 mg% in data set [2] (5.0 mg/ml). Also, the “effect on Factor II” value in data set [4] is reported as “mildly affected”. Also, the “PROTHROMBIN (%)” value in data set [4] (0.01 mg/ml) came out at 79%; in data set [4] (0.05 mg/ml), 80%; in data set [4] (0.1 mg/ml), 72%; in data set [4] (0.5 mg/ml) it was 40%; in data set [4] (1.0 mg/ml), 26%; in data set [4] (5.0 mg/ml), 5%. Besides, the mortality entry in data set [5] (2 days, rats 1 and 4) was “DIED”. Moreover, the “FIRST DAY BLOOD FACTOR PT” value in data set [5] (rat 5) came to 27. The “FIRST DAY BLOOD FACTOR PT, increase” value in data set [5] (rats 1-3) is 26% increase and 24% increase and 28% increase. For the same compound, in data set [6] (after about 5 years of medication, before between 200 and 220 mg %), the “Case IV: blood cholesterol value” was “about 144 mg %”. For the same compound, in data set [6] (man, Solutions A, B, C, or D orally, up to 20 drops per meal, within 2-3 months), the “Case IV: hypertension, arthritis, arrithmia, hemorrhoids, dispepsia, cyanotic fingers and toes, malaise, lassitude” value is reported as “all of the above identified conditions improved (except for diabetes)”. In addition, the “coagulation of stored blood samples” value in data set [7] was “have not coagulated”.
